Where “and” joins values, the source holds several entries; their conditions need not be identical. Equal entries are not always repeated. Where two headings read alike, the source gives them in different places.
What was measured:
[1] = Heparin oral/intracolonic delivery, clotting time by activated partial thromboplastin time (APTT); format: in vivo, Sprague-Dawley rats; details: rats, baseline about 20 seconds
Method in brief: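 Heparin sodium with a delivery agent in 25% aqueous propylene glycol, pH about 7, was dosed by oral gavage or intracolonically. Citrated cardiac blood was taken under ketamine (88 mg/kg) at 0.25, 0.5, 1.0 and 1.5 h after dosing. Absorption was read as a rise in APTT clotting time.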

[2] = rat, in vivo, po, 150 mg/kg
[3] = Insulin pulmonary delivery, serum insulin by ELISA, ratio to insulin-alone control; format: in vivo, Sprague-Dawley rats; details: Table 9 pulmonary delivery, rats; volume 1 ml/kg, delivery agent compound 3 mg/kg, insulin 100 mg/kg (so in the source)
Description: Dosing compositions of delivery agent compound and human insulin in water were prepared. Typically, to 1.5 mg of delivery agent compound was added deionized water to bring the volume to 1.0 ml, and the solution was vortexed. […] The pH was adjusted to between about 7.0 to 8.5 with NaOH or HCl. […] The final delivery agent compound dose, insulin dose and volume dose amounts are listed below in Table 9.
The typical dosing and sampling protocols were as follows. […] A control group of five animals was dosed insulin alone. A tracheal instillator for rodents, equipped with light (available from Penn Century, Inc., Pittsburgh, Pa.) was filled with dosing solution and inserted down the throat until the needle went into the trachea (confirmed visually). The dosing solution was administered by pressing the plunger.
Blood samples from each animal were collected serially from the tail artery, typically at 5, 15, 30, 60 and 120 minutes after dosing. […] The ratio of the area under the curve (AUC) for the test group versus that of the control group is reported below. The ratio of the maximum serum insulin concentration (Cmax) for the test group versus that of the control group is also reported below.

[4] = Salmon calcitonin (sCT) oral delivery, serum sCT by EIA; details: rats, delivery agent compound dose 50 mg/kg, sCT dose 100 μg/kg
[5] = Parathyroid hormone (PTH 1-34) oral/intracolonic delivery, serum PTH by radioimmunoassay; details: rats, oral (PO); delivery agent compound dose 100 mg/kg, PTH dose 200 μg/kg, volume dose 1 ml/kg
Description: Oral gavage (PO) and/or intracolonic (IC) dosing solutions of delivery agent compound and human parathyroid hormone residues 1-34 (PTH) in deionized water were prepared. A solution of the compound was made either with the sodium salt of the delivery agent compound or by converting the free acid to its sodium salt.
The typical dosing and sampling protocols were as follows. Male Sprague-Dawley rats weighing between 200-250 g were fasted for 24 hours and administered ketamine (44 mg/kg) and chlorpromazine (1.5 mg/kg) 15 minutes prior to dosing and again as needed to maintain anesthesia. A dosing group of five animals was administered one of the dosing solutions. For oral gavage (PO), an 11 cm Rusch 8 French catheter was adapted to a 1 ml syringe with a pipette tip. The syringe was filled with dosing solution by drawing the solution through the catheter, which was then wiped dry. The catheter was placed down the esophagus leaving 1 cm of tubing past the incisors. The dosing solution was administered by pressing the syringe plunger. For intracolonic (IC) dosing, a 7.5 cm Rusch catheter tube (French 8 or 6) was adapted to a syringe with an Eppendorf pipette tip. The syringe was filled with the dosing solution by drawing the solution through the catheter tube. The catheter tube was wiped dry. K-Y jelly was applied to the tip, avoiding contact with the eye of the tube, and the tube was inserted into the colon through the anus until the tube was no longer visible. The dosing solution was injected by pressing the syringe plunger, and the tube was removed.
Previous studies indicated baseline values of about zero. Results from the animals in each group were averaged for each time point.

[6] = Insulin oral delivery, serum human insulin by ELISA; details: rats
[7] = Interferon oral delivery, serum IFN by immunoassay; format: in vivo, Sprague-Dawley rats; details: rats, delivery agent compound 200 mg/kg, IFN 1 mg/kg, 1 ml/kg
Description: Dosing solutions of delivery agent compound and human interferon (IFN) were prepared in deionized water. […] This mixture was vortexed and placed in a sonicator (about 37° C.). The pH was adjusted to about 7.0 to 8.5 with aqueous NaOH. The mixture was vortexed to produce a uniform suspension or solution, also using sonication and heat if necessary.
(§1) The typical dosing and sampling protocols were as follows.
Serum IFN concentrations were quantified using Cytoscreen Immunoassay Kit for human IFN-alpha (catalog # KHC4012 from Biosource International, Camarillo, Calif.). Previous studies indicated baseline values of about zero.

[8] = Low molecular weight heparin (LMWH) oral/intracolonic delivery, plasma LMWH by anti-Factor Xa assay; format: in vivo, Sprague-Dawley rats; details: rats
Method in brief: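 LMWH (parnaparin) plus delivery agent in 25% aqueous propylene glycol, pH about 7, given orally or intracolonically. Citrated blood drawn by cardiac puncture under ketamine (88 mg/kg), typically at 0.5–4.0 h post-dose. Plasma LMWH measured by chromogenic anti-Factor Xa assay; peak of mean plasma concentrations reported.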

[9] = Daptomycin oral delivery, plasma daptomycin by HPLC; format: in vivo, Sprague-Dawley rats; details: rats, delivery agent compound dose 200 mg/kg, daptomycin dose 50 mg/kg, volume dose 1 mL/kg
Description: Dosing solutions containing a delivery agent compound and daptomycin (Cubist Pharmaceuticals, Cambridge, Mass.) were prepared in 0.9% normal saline. […] This mixture was vortexed and placed in a sonicator (about 37° C.). The pH was adjusted to about 7.0-7.5 with aqueous HCl or NaOH. […] The mixture was vortexed to produce a uniform solution, also using sonication if necessary. The delivery agent compound solution was mixed with daptomycin from a stock solution (200 mg daptomycin/mL in 0.9% normal saline and the pH adjusted, if necessary, to between 6.0-7.0 with NaOH or HCl). The stock solution was stored frozen (−20° C.) wrapped in foil, then thawed and warmed gradually to about 25° C. before using. The delivery agent-daptomycin mixture was vortexed at low speed to produce a uniform solution. The pH was adjusted to about 7.0-7.5 with aqueous NaOH. The solution was then diluted with 0.9% normal saline to the desired volume (usually 2.0 ml) and concentration and stored wrapped in foil before use.
as §1
Heparinized rat blood samples were collected via the ventral tail artery, typically at 0.25, 0.5, 0.75, 1.0, 2.0, and 4.0 hours after dosing, and stored on ice. Blood samples were then spun (centrifuged) at 11,500 rpm for 4 minutes at 4° C. to obtain the plasma (supernatant), which was stored at −70° C. The plasma daptomycin concentrations were measured by isocratic reversed phase HPLC, keeping samples at 4° C. during analysis. Blank plasma studies show baseline values of zero.
Daptomycin blood concentrations results from the individual animals in each dosage group were averaged for each time point.

[10] = IC (intracolonic), delivery agent compound 50 mg/kg, heparin 25 mg/kg, volume dose 1 ml
[11] = IC, delivery agent compound 50 mg/kg, LMWH 750 IU/kg, 1 ml/kg, 50 mg/kg

Structure (SMILES): O=C(O)COc1ccccc1O [Compound 3]
- Mean Peak APTT ± SD [1, 10]: 16.046 ± 0.481 s and 16.984 ± 1.45 s
- Mean Peak Serum sCT (pg/ml ± SD) (SE) [2]: 0 ± 81 pg/mL

Structure (SMILES): O=C(O)CCCCCCCOc1ccccc1O [Compound 7, 8-(2-hydroxyphenoxy)octanoic acid]
- Cmax (serum insulin) [3]: 130.9724 μU/ml
- Mean Peak APTT ± SD [1, 10]: 130.5 ± 42.6 s and 92 ± 40.3 s and 99.4 ± 25.5 s
- melting point: 60 to 64 °C

Structure (SMILES): CC(=O)c1ccccc1OCCCCCCCC(=O)O [Compound 12]
- Mean Peak Serum sCT (pg/ml ± SD) (SE) ([4]; dose volume 0.5 (ml)): 445 ± 221 pg/mL
- Mean Peak Serum sCT (pg/ml ± SD) (SE) ([4]; dose volume 1 (ml)): 316 ± 476 pg/mL
- Mean Peak APTT ± SD ([1]; PO (oral gavage), delivery agent compound 300 mg/kg, heparin 100 mg/kg, volume dose 3 ml): 201.4 ± 45.7 s
- Mean Peak Serum [PTH] (pg/mL) ± SD [5]: 276 ± 252 pg/mL
- Mean Peak Serum [INS] ± SD ([6]; delivery agent compound 100 mg/kg, insulin 3 mg/kg, 0.5 ml/kg): 205.4 ± 333.4 μU/ml
- Mean Peak Serum [IFN] ± SD [7]: 1.6362 ± 1.68 ng/mL
- Mean Peak Plasma LMWH Concentration ± SD ([8]; IC, delivery agent compound 10 mg/kg, LMWH 750 IU/kg, 1 ml/kg): 0.2 ± 0.077 IU/ml
- Mean Peak Plasma LMWH Concentration ± SD [8, 11]: 1.7 ± 0.308 IU/ml and 1.74 ± 0.304 IU/ml and 2.012 ± 0.124 IU/ml and 1.498 ± 0.462 IU/ml
- Mean Peak Plasma LMWH Concentration ± SD ([8]; IC, delivery agent compound 50 mg/kg, LMWH 751 IU/kg, 1 ml/kg): 1.5 ± 0.23 IU/ml
- Mean Peak Plasma LMWH Concentration ± SD ([8]; PO, delivery agent compound 300 mg/kg, LMWH 3000 IU/kg, 3 ml/kg): 0.137 ± 0.18 IU/ml
- Mean plasma Cmax [daptomycin] ± SD [9]: 16110 ± 17580 ng/mL

Structure (SMILES): NC(=O)c1ccccc1OCCCCCCCC(=O)O [Compound 30, 8-(2-carboxamidophenoxy)caprylic acid]
- Mean Peak APTT ± SD [1, 10]: 50.9 ± 20.5 s
- Mean Peak Serum [PTH] (pg/mL) ± SD [5]: 78 ± 71 pg/mL
- Mean Peak Serum [INS] ± SD ([6]; delivery agent compound 200 mg/kg, insulin 0.5 mg/kg, 1 ml/kg): 21.88 ± 13.4 μU/ml
- Mean Peak Plasma LMWH Concentration ± SD [8, 11]: 0.162 ± 0.094 IU/ml and 0.288 ± 0.152 IU/ml
- Mean plasma Cmax [daptomycin] ± SD [9]: 3060 ± 780 ng/mL
